From paper PMC8802628, “Selective activation of PFKL suppresses the phagocytic oxidative burst” (Cell, 2021)
Like-named read-outs stand apart in the source and are kept apart here. One block for each compound: values may come before it.

Legend:
[1] = molecular target: T1, PFKL (Homo sapiens, UniProt P17858); experiment: Recombinant PFKL activity assay (relief of ATP inhibition); assay type: biochemical
T1 construct: made in house; host or cells: Sf9 insect cells (baculovirus, Bac-to-Bac)
T1 sequence (P17858 1-780): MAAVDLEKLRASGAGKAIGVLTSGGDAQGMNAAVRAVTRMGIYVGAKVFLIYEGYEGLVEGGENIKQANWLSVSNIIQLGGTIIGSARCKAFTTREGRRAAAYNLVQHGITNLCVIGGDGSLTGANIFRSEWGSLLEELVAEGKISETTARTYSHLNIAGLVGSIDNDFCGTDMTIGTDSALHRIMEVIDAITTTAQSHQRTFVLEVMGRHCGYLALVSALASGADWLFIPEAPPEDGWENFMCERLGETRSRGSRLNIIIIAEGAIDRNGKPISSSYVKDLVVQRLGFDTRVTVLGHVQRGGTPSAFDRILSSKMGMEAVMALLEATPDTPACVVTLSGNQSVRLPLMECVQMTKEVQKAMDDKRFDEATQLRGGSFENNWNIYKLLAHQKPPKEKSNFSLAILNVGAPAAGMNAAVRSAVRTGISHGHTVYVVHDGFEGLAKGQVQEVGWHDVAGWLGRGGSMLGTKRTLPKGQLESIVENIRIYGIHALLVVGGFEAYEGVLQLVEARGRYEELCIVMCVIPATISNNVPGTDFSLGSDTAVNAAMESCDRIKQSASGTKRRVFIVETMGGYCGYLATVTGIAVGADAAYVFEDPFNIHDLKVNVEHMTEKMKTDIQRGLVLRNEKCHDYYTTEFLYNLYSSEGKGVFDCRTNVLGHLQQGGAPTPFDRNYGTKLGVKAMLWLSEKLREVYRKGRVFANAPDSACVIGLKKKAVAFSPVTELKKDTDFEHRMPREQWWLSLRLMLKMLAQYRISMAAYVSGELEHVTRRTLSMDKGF
Text: (§1) Recombinant N-terminal His-tagged human PFKL (NP_002617), PFKM (NP_000280), and PFKP (NM_002627.4) were generated as described ([Webb et al., 2015], [2017]). Point mutants of PFK1 were generated using the QuikChange Lightning kit (Aligent).
(§2) His-tagged PFK1 was expressed and purified as described with slight modifications ([Webb et al., 2015], [2017]). Briefly, baculovirus was generated using the Bac-to-Bac Expression system (Invitrogen). PFK1 was expressed in 2-5 × 10^6 sf9 cells at a multiplicity of infection of two for 48 h. Cells were lysed in 20 mM HEPES, pH 7.5, 80 mM potassium phosphate, 1 mM 2-mercapentoethanol, 10% glycerol, 10 mM imidazole, and EDTA-free Protease Inhibitor Cocktail (Abcam) with a Dounce homogenizer. The soluble lysate was incubated with HisPur cobalt resin (ThermoFisher Scientific). The resin was washed with 5 bead volumes lysis buffer, 10 bead volumes lysis buffer containing 2 M NaCl, and 5 further bead volumes lysis buffer. PFK1 was eluted in lysis buffer containing 100 mM imidazole. Fractions containing protein were pooled, passed over a desalting column equilibrated in freezing buffer [20 mM HEPES pH 7.5, 1 mM DTT, 500 μM ammonium sulfate, 5% glycerol, 1 mM ATP, and 100 μM EDTA] and concentrated using an Amicon Ultracel-30K Centrifugal Filter Unit (MilliporeSigma). Protein was quantified using a Bradford Protein Assay kit (ThermoFisher Scientific), and aliquotes frozen in liquid nitrogen for storage at −80°C.
(§3) PFK1 activity was determined using the rate of FBP production via an auxiliary enzyme assay adapted to a 96-well format ([Brüser et al., 2012]; [Webb et al., 2015]). The auxiliary enzymes aldolase, triosephosphate isomerase, and glycerol phosphate dehydrogenase were purchased from MilliporeSigma as ammonium sulfate slurries and desalted using an Amicon Ultracel-10K Centrifugal Filter Unit. For assays containing FBP, the rate of ADP production was determined using the auxiliary enzymes pyruvate kinase (PK) and lactate dehydrogenase (LDH) (MilliporeSigma) in a buffer containing 250 μM phosphoenolpyruvic acid, […] NADH, 50 mM HEPES pH 7.5, 100 mM KCl, 1 mM DTT, and effector concentrations as described in the text. The temperature was equilibrated to 25°C for 5 min before initiating the reaction 10 mM MgCl2. Absorbance at 340 nm was measured using a Varioskan LUX Multimode microplate reader (ThermoFisher). Kinetic parameters were generated by nonlinear regression analysis using Prism (GraphPad Software) and are the mean of a minimum of three measurements from two independent preparations of protein. One unit of activity was defined as the amount of enzyme that catalyzed the formation of 1 μmol of fructose 1,6-bisphosphate per min at 25°C. Assays for PFKM were performed at pH 7.0 due to the pH-dependence of ATP inhibition ([Trivedi and Danforth, 1966]).

[2] = molecular target: T2, human PFKM (Homo sapiens, UniProt P08237); experiment: Recombinant PFKM activity assay; assay type: biochemical; conditions: for activation of PFKM: at concentrations up to 100 μM
T2 construct: made in house; host or cells: Sf9 insect cells (baculovirus)
T2 sequence (P08237 1-780): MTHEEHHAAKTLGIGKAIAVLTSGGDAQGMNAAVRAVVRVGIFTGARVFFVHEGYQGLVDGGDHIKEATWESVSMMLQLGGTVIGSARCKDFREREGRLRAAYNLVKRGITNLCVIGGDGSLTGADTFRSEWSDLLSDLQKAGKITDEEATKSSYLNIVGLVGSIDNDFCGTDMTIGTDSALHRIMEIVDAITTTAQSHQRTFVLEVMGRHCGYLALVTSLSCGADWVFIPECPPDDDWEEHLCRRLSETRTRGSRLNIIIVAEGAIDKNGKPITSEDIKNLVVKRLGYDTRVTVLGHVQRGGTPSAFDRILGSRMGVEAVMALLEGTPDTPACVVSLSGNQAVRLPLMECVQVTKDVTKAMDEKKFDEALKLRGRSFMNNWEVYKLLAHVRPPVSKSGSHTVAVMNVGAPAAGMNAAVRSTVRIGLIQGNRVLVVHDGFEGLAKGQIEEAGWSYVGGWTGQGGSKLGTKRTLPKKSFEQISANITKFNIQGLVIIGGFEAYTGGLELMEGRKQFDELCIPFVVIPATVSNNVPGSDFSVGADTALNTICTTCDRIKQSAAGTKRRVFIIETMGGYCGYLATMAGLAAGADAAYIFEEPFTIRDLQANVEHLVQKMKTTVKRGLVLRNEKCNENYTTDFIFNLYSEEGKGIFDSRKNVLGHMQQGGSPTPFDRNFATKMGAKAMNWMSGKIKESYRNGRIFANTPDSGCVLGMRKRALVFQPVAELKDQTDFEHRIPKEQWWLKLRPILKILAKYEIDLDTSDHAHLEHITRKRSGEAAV
Text: as §1, §2
as §3, with “Assays for PFKM were performed at pH 7.0 due to the pH-dependence of ATP inhibition ([Trivedi and Danforth, 1966]).” left out

[3] = PFKL wild type, pH 7.5, 225 μM ATP
[4] = PFKM wild type, pH 7.0, 250 μM ATP
[5] = pH 7.5, 3.1 mM ATP, 4 mM F6P, mean ± SEM, read-out: EC50, activation of PFKL wild type

hF6P (Hill coefficient) [1, 3]: 3.16 ± 0.89
hF6P (Hill coefficient) [2, 4]: 4.62 ± 1.38
Structure (SMILES): O=C(CO)[C@@H](O)[C@H](O)[C@H](O)COP(=O)(O)O [F6P, fructose 6-phosphate]
Vmax,F6P [1, 3]: 13.28 ± 1.69 micromoles FBP per minute per milligram PFK1
Vmax,F6P [2, 4]: 19.14 ± 0.74 micromoles FBP per minute per milligram PFK1

EC50 [1, 5]: 66 ± 18.9 nM
activation of PFKM [2]: failed to activate
Structure (SMILES): COc1ccccc1-c1cc2n(n1)Cc1ccc(NC(C)=O)cc1OC2 [LDC7559, reference compound]

EC50 [1, 5]: 19.2 ± 6.79 nM
Structure (SMILES): CC(=O)Nc1ccc2c(c1)OCc1cc(-c3ccccc3)nn1C2 [NA-5]

Structure (SMILES): CC(=O)Nc1ccc2c(c1)OCc1cc(-c3ccccc3C#CCCCO)nn1C2 [NA-11]
EC50 ([1]; Control (ligand series), pH 7.5, 4.0 mM F6P, 3.1 mM ATP, read-out: EC50, NA-11): 12 ± 2.73 nM
Vmax ([1]; NA-11 titration with 50 μM AMP, pH 7.5, 4.0 mM F6P, 3.1 mM ATP): 18.11 ± 1.23 μmoles FBP per min per mg PFK1
Vmax ([1]; NA-11 titration with 200 μM FBP, pH 7.5, 4.0 mM F6P, 3.1 mM ATP): 21.31 ± 2.44 μmoles FBP per min per mg PFK1
Vmax ([1]; NA-11 titration, Control, pH 7.5, 4.0 mM F6P, 3.1 mM ATP): 18.19 ± 1.29 μmoles FBP per min per mg PFK1
EC50 ([1]; pH 7.0, 4.0 mM F6P, 3.1 mM ATP, mean ± s.e.m., read-out: EC50, NA-11): 74 ± 20.9 nM
EC50 ([1]; pH 7.5 (pH series), 4.0 mM F6P, 3.1 mM ATP, mean ± s.e.m., read-out: EC50, NA-11): 21.8 ± 6.21 nM
EC50 [1, 5]: 14 ± 2.91 nM
EC50 ([1]; pH 8.0, 4.0 mM F6P, 3.1 mM ATP, mean ± s.e.m., read-out: EC50, NA-11): 4.11 ± 0.92 nM
EC50 ([1]; with 50 μM AMP, pH 7.5, 4.0 mM F6P, 3.1 mM ATP, read-out: EC50, NA-11): 12.3 ± 3.38 nM
EC50 ([1]; with 200 μM FBP, pH 7.5, 4.0 mM F6P, 3.1 mM ATP, read-out: EC50, NA-11): 12 ± 6.99 nM
activation of PFKM [2]: failed to activate
